Laboratory results: PMC6232849 (European journal of medicinal chemistry, 2018)
Like-named read-outs stand apart in the source and are kept apart here.

Columns and labels:
[1] = tested on: NF54 strain of P. falciparum; assay: parasite growth inhibition, chloroquine-sensitive NF54 strain cultured in vitro; type: cell-based, Plasmodium falciparum
[2] = tested on: Dd2 strain of P. falciparum; assay: parasite growth inhibition, chloroquine-resistant Dd2 strain; type: cell-based, Plasmodium falciparum
β-hematin formation = type: biochemical; details: for IC50: read-out: β-hematin inhibition IC50, NP-40 detergent mediated assay
[3] = tested on: hemozoin formation in NF54 strain of P. falciparum; assay: cellular heme fractionation assay; type: cell-based, Plasmodium falciparum; details: NF54, 32 h incubation, drug added to early ring stage parasites
[4] = tested on: Chinese hamster ovarian, CHO, cells; assay: cytotoxicity against mammalian cells; type: cell-based
[5] = read-out: NF54 malaria parasite growth inhibition IC50, chloroquine-sensitive NF54 strain, LDH method of Makler et al

CCN(CC)CCCC(C)Nc1ccnc2cc(Cl)ccc12 (stereo not drawn) [Chloroquine, reference compound]
IC50 ([1]; Plasmodium falciparum, NF54, read-out: IC50 NF54): 16 ± 6 nM
IC50 ([1]; Plasmodium falciparum, NF54, read-out: NF54 malaria parasite growth inhibition IC50): 16 ± 6 nM
IC50 ([2]; Plasmodium falciparum, DD2, read-out: IC50 Dd2): 150 ± 30 nM

O=C(Nc1ccc(-c2nc3ccccc3[nH]2)cc1)c1ccccc1 [Compound 2]
parasite growth inhibition activity (in words) [1]: virtually inactive
β-hematin inhibition activity (in words) (β-hematin formation): virtually inactive

O=C(Nc1ccc(-c2nc3ccccc3[nH]2)cc1)c1cncc(Br)c1 [Compound 5, N-(4-(1H-Benzo[d]imidazole-2-yl)phenyl)-5-bromonicotinamide]
change in freely exchangeable heme in the parasite cell [3]: corresponding increase
change in hemozoin in the parasite cell [3]: large decrease
change in undigested hemoglobin in the parasite cell [3]: much smaller (non-significant) increase
parasite growth inhibition activity (in words) [1]: sub-micromolar

O=C(Nc1ccc(-c2nc3ccccc3[nH]2)cc1)c1cc(Cl)nc(Cl)c1 [Compound 12, N-(4-(1H-Benzo[d]imidazole-2-yl)phenyl)-2,6-dichloroisonicotinamide]
parasite growth inhibition activity (in words) [1]: sub-micromolar

O=C(Nc1ccc(-c2nc3ccccc3n2C(=O)c2ccccc2)cc1)c1cccc(Br)c1 [Compound 26, N-(4-(1H-Benzoyl-benzo[d]imidazole-2-yl)phenyl)-3-bromobenzamide]
IC50 [1, 5]: 2600 ± 600 nM
IC50 (β-hematin formation): 15600 ± 500 nM

N-(4-(1H-Benzo[d]imidazole-2-yl)phenyl)-3-(trifluoromethyl)nicotinamide [Compound 9]
SI (Dd2) (Selectivity index = IC50 (CHO)/IC50 (Dd2)) ([4]; CHO versus Dd2): 32
SI (NF54) (Selectivity index = IC50 (CHO)/IC50 (NF54)) ([4]; CHO versus NF54): 44
IC50 ([4]; read-out: IC50 CHO, cytotoxicity in CHO cells): 35000 ± 4000 nM
parasite growth inhibition activity (in words) [1]: sub-micromolar
IC50 ([1]; read-out: IC50 NF54, chloroquine-sensitive NF54 strain (Table 2)): 800 ± 500 nM
IC50 [1, 5]: 800 ± 500 nM
RI (Resistance index = IC50 (Dd2)/IC50 (NF54)) ([2]; Dd2 versus NF54): 1.4
IC50 ([2]; read-out: IC50 Dd2, chloroquine-resistant Dd2 strain): 1100 ± 370 nM
IC50 (β-hematin formation): 16600 ± 300 nM
